Data on six compounds can be found in patent US5859056A, “Pharmaceutical composition for treating cardiovascular diseases containing 3-(2,2,2-trimethylhydrazinium)propionate and γ-butyrobetaine” (priority 1995, dated 1999).

Where two headings read alike, the source gives them in different places. Some results are limits rather than exact numbers.

Data set [1] concerns hemodynamics of anesthetised cats. Put plainly: effects on hemodynamics of anesthetised cats (Table 1). The class given is in vivo, cat. How it is done: The experiments were performed on male and female (2.9-3.8 kg) anaesthetized cats (urethane 200 mg/kg and chloralose 50 mg/kg, both i.p.).
The chest was opened in the experimental animals, which were artificially respirated, and blood pressure in the carotid artery as well as general aorta blood flow were measured on physiograph DMP-46 "Narco Bio-Systems" USA.

For data set [2], the system named is CaCl2-induced lethal arrhythmias in mice. Put plainly: CaCl2-induced lethal arrhythmias in mice (Table 4). The data set is classed as in vivo, albino mice. The following applies: for Survive (number of animals): 10 observations. How it is done: This experiment was performed on male and female conscious albino mice (19-26 g) administering to their tail vein a 2% (by weight) calcium chloride solution, animal protection against lethal arrhythmia being used as an effect criterion (Table 4).

Data set [3] concerns CaCl2-induced lethal arrhythmias in rats. Put plainly: CaCl2-induced lethal arrhythmias in rats (Table 5). The class given is in vivo, albino rats. The following applies: for Survive (number of animals) / Survive (percent): 5 observations. The procedure: These experiments were performed on male and female albino rats (190 to 230 g) anesthetized with urethane ([…], i.p.), and after 2% calcium chloride solution administration to animal foot vein ECG was registered in II standard lead.

Data set [4] has as its system carnitine biosynthesis. The following applies: cited from earlier work; for mechanism of action: literature.
For data set [5] the following is noted: cited from earlier work; for toxic effects: W. Linneweh, 1929.
Data set [6] deals with rabbit ear blood vessel. Put plainly: adrenaline-induced rabbit ear blood vessel spasm in the presence of L-nitro-arginine (Table 3). The following applies: adrenaline 3.10^-7 M and L-NO2-Arg 10 mg/l.
The test system of data set [7] is ischemia and reperfusion-induced heart rhythm disturbances in rats. The data set can be described thus: ischemia and reperfusion-induced heart rhythm disturbances in rats, prophylactic regimen (Table 7). The class given is in vivo, Wistar rats. The following applies: for Lethality (number of animals from total numb) / ST rise during occlusion / Ventricular fibrillation (number of animals from total numb) / Ventricular tachycardy (number of animals from total numb): 50 mg/kg (proph.), i.v. 30 min before occlusion; for efficacy against ischaemia-reperfusion-induced damage and rhythm disturbances: prophylactic regimen, in words.
Protocol: (§2) The experiments were carried out on Wistar rats (260-330 g). During phenobarbital anesthesia (50 mg/kg, i.p.) and artificial respiration their chest was opened and the left coronary artery was ligated with 6.0 Silk Ethicon thread which was pulled out through plastic pipe. Occlusion was made by pressing the plastic pipe to the heart surface, and ischaemia stage was controlled by ECG, fixing ischaemia-induced changes in ECG. Solutions of the substances or saline were i.v. injected in two regimens:
1) prophylactically--30 min before occlusion by administration of 50 mg/kg,

The conditions of data set [8]: literature statements; cited from earlier work.
Data set [9] concerns albino mice. Put plainly: in vivo. The following applies: in words. The procedure: (§1) Acute toxicity was studied on male and female albino mice (19-26 g), 10 animals in a group. The substances were administered as a 10% solution orally or i.v. (with 0.004 ml/sec rate).
The nature of data set [10]: in vivo. The note with it: mouse, in vivo. How it is done:
as §1

Data set [11] deals with ischemia- and reperfusion-induced heart rhythm disturbances in rats. The data set can be described thus: ischemia- and reperfusion-induced heart rhythm disturbances in rats, therapeutic regimen (Table 6). The class given is in vivo, Wistar rats. The following applies: for Lethality (number of animals from total numb) / ST rise during occlusion / Ventricular fibrillation (number of animals from total numb) / Ventricular tachycardy (number of animals from total numb): 50 mg/kg total (25 injection + 25 infusion); for efficacy against ischaemia-reperfusion-induced damage and rhythm disturbances: therapeutic regimen, in words.
Protocol: as §2
2) therapeutically--1.5 min after occlusion by administering 25 mg/kg in injection and 25 mg/kg infusively. Infusion was stopped 2 min after reperfusion.

Data set [12] deals with isolated rabbit ear blood vessel. The data set can be described thus: adrenaline-induced isolated rabbit ear blood vessel spasms (Table 2). The note with it: for Perfusion pressure, final data, max / Perfusion pressure, final data, min: after adrenaline 3.10^-7 M addition.

`CC(=O)OCC[N+](C)(C)C` [Ach, acetyl choline]: in data set [1] (0.001 mg/kg i.v.), the Blood pressure changes is reported as -35% and the Heart rate changes is on record as -20%.

Take `CCOC(=O)Nc1ccc2c(c1)N(C(=O)CCN1CCOCC1)c1ccccc1S2` [Etmozine]: the “Protection against the control” value in data set [2] (5 mg/kg p.o.) is reported as 20%; in [2] (10 mg/kg p.o.), 40%; in data set [2] (30 mg/kg p.o.) it was 40%; in [3] (3 mg/kg p.o.) it was 20%; in data set [3] (10 mg/kg p.o.), 46%. Besides, the “Survive (number of animals)” value in data set [2] (5 mg/kg p.o.) came out at 3; in data set [2] (10 mg/kg p.o.) it was 5; in data set [2] (30 mg/kg p.o.), 5; in [3] (3 mg/kg p.o.) it was 1; in [3] (10 mg/kg p.o.) it was 2. Also, the entries for the “Survive (percent)” value in data set [3] (3 mg/kg p.o.) and in data set [3] (10 mg/kg p.o.) were 10% and 40%, respectively.

A word on the LD50: it is the dose expected to kill half of the subjects tested. Take `C[N+](C)(C)CCCC(=O)[O-]` [GBB, γ-butyrobetaine]: the “Protection against the control” value is 10% in data set [2] (8 mg/kg p.o.); 0% in data set [2] (20 mg/kg p.o.); 20% in data set [2] (30 mg/kg p.o.); 40% in data set [2] (50 mg/kg p.o.); 30% in [2] (100 mg/kg p.o.); 20% in [3] (10 mg/kg p.o.). Further, in data set [3] (30 mg/kg p.o.), the “Protection against the control” value stood at 32%. Further, the “Survive (number of animals)” value in data set [2] (8 mg/kg p.o.) is 2; in [2] (20 mg/kg p.o.), 1; in data set [2] (30 mg/kg p.o.), 3; in data set [2] (50 mg/kg p.o.), 5; in data set [2] (100 mg/kg p.o.), 4; in data set [3] (10 mg/kg p.o.), 1. For the same compound, the “Survive (number of animals)” value in [3] (30 mg/kg p.o.) is recorded as 1. Moreover, the “protection from lethal arrhythmia (cases)” value in data set [2] (50 and 100 mg/kg of γ-butyrobetaine) is reported as 30-40%. The “level of carnitine biosynthesis in the organism” value in [4] (background statement) is “increases the level of carnitine biosynthesis in the organism”. The toxic effects entry in [5] (listed as γ-Butyrobetaine) was “accelerates respiration, causes salivation and lacrimation, pupil dilation, vasoconstriction and heart stop in diastole”; in [5] (listed as γ-butyrobetaine) it was “heart stop in diastole”. In addition, the LD50 in data set [5] (s.c.) was more than 7000 mg/kg; in [10] (iv), 1860 mg/kg; in [10] (po) it was more than 4500 mg/kg. Also, the “Perfusion pressure, final data, max” value in data set [6] (0.3 μM) worked out at 168 mm Hg; in [6] (1.0 μM), 165 mm Hg; in data set [6] (2.0 μM) it was 163 mm Hg; in data set [12] (0.3 μM), 124 mm Hg; in data set [12] (1.0 μM), 125 mm Hg; in data set [12] (2.0 μM) it was 125 mm Hg. In addition, the “Perfusion pressure, final data, min” value amounted to 105 mm Hg in [6] (0.3 μM); 100 mm Hg in data set [6] (1.0 μM); 100 mm Hg in data set [6] (2.0 μM); 76 mm Hg in data set [12] (0.3 μM); 80 mm Hg in data set [12] (1.0 μM); 78 mm Hg in [12] (2.0 μM). In addition, the “Lethality (number of animals from total numb)” value in data set [7] was 3/8; in [11], 1/10. The figures for the “ST rise during occlusion” value in data set [7] and in data set [11] were 0.36 mV and 0.23 ± 0.05 mV, respectively. In addition, the “Ventricular fibrillation (number of animals from total numb)” value in data set [7] was 6/8; in [11], 4/10. Besides, the results for the “Ventricular tachycardy (number of animals from total numb)” value in [7] and in [11] were 8/8 and 7/10, respectively. For the same compound, the “efficacy against ischaemia-reperfusion-induced damage and rhythm disturbances” value in [7] was “ineffective”; in data set [11], “effectively protects myocardium from ischaemia-reperfusion-induced myocardium damages and ventricular fibrillations which are partially resumed after infusion termination”. In addition, the “Survive (percent)” value in data set [3] (10 mg/kg p.o.) and in data set [3] (30 mg/kg p.o.) was 20% in each case. In data set [8], the pharmacological action result is “pharmacologically inert substance”. In addition, the “Blood flow rate changes” value in data set [1] (5.0 mg/kg i.v.) was 6%; in data set [1] (10.0 mg/kg i.v.), 12%. Further, in data set [9], the acute toxicity result was “practically nontoxic agent”. In addition, the “potency on adrenaline-induced vessel spasms relative to 3-(2,2,2-trimethylhydrazinium)propionate” value in data set [12] (isolated rabbit ear) was 2-3 times.

Take `C[N+](C)(C)NCCC(=O)[O-]` [M, 3-(2,2,2-Trimethylhydrazinium)propionate]: the “Protection against the control” value came to 10% in data set [2] (8 mg/kg p.o.); 20% in data set [2] (20 mg/kg p.o.); 30% in data set [2] (30 mg/kg p.o.); 30% in data set [2] (50 mg/kg p.o.); 40% in [2] (100 mg/kg p.o.); 15% in data set [3] (10 mg/kg p.o.). The “Protection against the control” value came out at 23% in [3] (20 mg/kg p.o.) and 25% in data set [3] (30 mg/kg p.o.). Moreover, the “Survive (number of animals)” value in data set [2] (8 mg/kg p.o.) was 2; in [2] (20 mg/kg p.o.) it was 3; in data set [2] (30 mg/kg p.o.), 4; in [2] (50 mg/kg p.o.) it was 4; in [2] (100 mg/kg p.o.), 5; in data set [3] (10 mg/kg p.o.) it was 1. The “Survive (number of animals)” value in data set [3] (20 mg/kg p.o.) and in data set [3] (30 mg/kg p.o.) was 1 in each case. The mechanism of action result in [4] was “limitation of carnitine biosynthesis rate and the related long-chain fatty acid Transport limitation through mitochondria membranes”; in data set [4] (listed as 3-(2,2,2-trimethylhydrazinium)-propionate (THP)), “γ-butyrobetaine hydroxylase inhibitor”. Moreover, the “Perfusion pressure, final data, max” value in [6] (0.3 μM) came out at 165 mm Hg; in [6] (1.0 μM) it was 163 mm Hg; in data set [6] (2.0 μM) it was 165 mm Hg; in data set [12] (0.3 μM), 125 mm Hg; in data set [12] (1.0 μM) it was 123 mm Hg; in data set [12] (2.0 μM), 126 mm Hg. The “Perfusion pressure, final data, min” value was found to be 102 mm Hg in data set [6] (0.3 μM); 100 mm Hg in data set [6] (1.0 μM); 100 mm Hg in data set [6] (2.0 μM); 80 mm Hg in data set [12] (0.3 μM); 77 mm Hg in data set [12] (1.0 μM); 80 mm Hg in data set [12] (2.0 μM). In addition, the “Lethality (number of animals from total numb)” value in [7] is 2/8; in [11] it was 3/10. For the same compound, the “ST rise during occlusion” value is on record as 0.31 mV in [7] and 0.4 ± 0.1 mV in data set [11]. Besides, the “Ventricular fibrillation (number of animals from total numb)” value in [7] is recorded as 5/8; in data set [11] it was 8/10. Further, the “Ventricular tachycardy (number of animals from total numb)” value in [7] is on record as 7/8; in data set [11], 10/10. The “efficacy against ischaemia-reperfusion-induced damage and rhythm disturbances” value is recorded as “markedly better in the case of prophylaxis, i.e., 30 min. before occlusion when it protects myocardium from ischemia increase during occlusion” in [7] and “relatively low” in data set [11]. Also, the “Survive (percent)” value in data set [3] (10 mg/kg p.o.), in data set [3] (20 mg/kg p.o.) and in data set [3] (30 mg/kg p.o.) was 20% each time. In addition, the figures for the “Blood flow rate changes” value in data set [1] (5.0 mg/kg i.v.) and in [1] (10.0 mg/kg i.v.) were “+5%” and “+8%”, respectively.

For `C=C[C@H]1C[N@@]2CC[C@H]1C[C@@H]2[C@@H](O)c1ccnc2ccc(OC)cc12` [Quinidine], the “Protection against the control” value in data set [2] (10 mg/kg p.o.) is on record as 10%; in [2] (30 mg/kg p.o.), 30%; in data set [2] (50 mg/kg p.o.) it was 50%; in data set [3] (3 mg/kg p.o.), 25%; in data set [3] (10 mg/kg p.o.), 46%. In addition, the “Survive (number of animals)” value in [2] (10 mg/kg p.o.) was 2; in data set [2] (30 mg/kg p.o.) it was 4; in data set [2] (50 mg/kg p.o.), 6; in data set [3] (3 mg/kg p.o.) it was 1; in data set [3] (10 mg/kg p.o.), 2. The “Survive (percent)” value in data set [3] (3 mg/kg p.o.) amounted to 20%; in [3] (10 mg/kg p.o.), 40%.

With `COC(=O)CCC[N+](C)(C)C` [methyl ester], the pharmacological action result in data set [8] is “possesses cholinergic properties”.
